In patent US20240059693A1, “FUSED BICYCLIC PYRAZOLE DERIVATIVES AND METHODS OF USE THEREOF FOR THE TREATMENT OF HERPESVIRUSES” (Merck Sharp & Dohme LLC, priority 2020, published 2024):
Read-outs that look alike come from different tables or passages of the source.

Legend:
[1] = tested on: HCMV Strain AD169; test: Viral qPCR assay, HCMV in MRC-5 cells; type: cell-based, Human cytomegalovirus; conditions: read-out: CMV MRC5 Cell (EC50)
Method: (§1) MRCS cells, Vero cells, and MeWo cells were obtained from ATCC and were maintained at 37° C./5% CO2/90% relative humidity in Minimal Essential Medium with 10% fetal bovine serum, […] L-glutamine, 100 units/ml penicillin and 100 ug/ml streptomycin. Assay plates were prepared by dispensing compounds dissolved in DMSO into wells of 384 well collagen-coated plates using an ECHO acoustic dispenser. Each compound was tested in a 10-point, serial 3-fold dilution. Controls included uninfected cells and infected cells treated only with DMSO. Assays were initiated by mixing selected cells, in suspension, with virus, and dispensing 50 μl/well infected cells to pre-plated compounds. Plates were incubated at 37° C./5% CO2/90% relative humidity for ˜72 hrs to permit genomic replication, and infected cells were lysed by the addition of an equal volume of lysis buffer (10 mM Tris-HCl, pH8, 50 mM KCl, 2 mM MgCl2, 0.45% NP-40, 0.45% Tween-20, and 100 μg/ml proteinase K). An aliquot of the lysate was transferred to a 384-well PCR plate and incubated at 56° C. for 1 hour and then at 95° C. for 10 min. Levels of a viral gene and of the cellular control, PPIA (Thermo Fisher Assay ID=Hs04194521_s1), were measured in separate 10 μL qPCR assays using TaqMan® Gene Expression Master Mix (Applied Biosystems), and an 7900HT Fast Real-Time PCR System with 384-Well Block Module. 7-point, serial 10-fold dilutions of a plasmid standard were run on each plate to generate a standard curve, and genome copies numbers were calculated by plotting experimental Ct onto linear regression of the standard curve. Viral genome copy numbers were normalized by cellular control copy number, and compound effects were normalized to the window defined by the controls. Calculated % effects were fit using a 4-parameter algorithm, and EC50 was reported.
as §1, with “gene” for “gene and of the cellular control, PPIA (Thermo Fisher Assay ID=Hs04194521_s1),”, “in” for “in separate”, “Compound effects on viral” for “Viral”, “number” for “numbers were normalized by cellular control copy number, and compound effects”
HCMV: Strain AD169 Street was assayed in MRC-5 cells and was used at 0.05-0.1 pfu/cell. The assays were performed in either growth media or in the same media with 50% fetal bovine serum. Primer-probe set was Thermo Fisher Assay ID=AIFATFK.

[2] = tested on: HSV2; test: Viral qPCR assay, HSV2 in MRC5 cells; type: cell-based, Herpes Simplex Virus type 2; conditions: read-out: HSV2 MRC5 Cell (EC50)
Method: as §1
as §1, with “gene” for “gene and of the cellular control, PPIA (Thermo Fisher Assay ID=Hs04194521_s1),”, “in” for “in separate”, “Compound effects on viral” for “Viral”, “number” for “numbers were normalized by cellular control copy number, and compound effects”

[3] = target: T1, Human cytomegalovirus DNA polymerase (Human cytomegalovirus, UniProt P08546); test: HCMV polymerase assay (AlphaLISA); type: biochemical; conditions: HCMV DNA polymerase 0.2 nM, 60 minutes at 37° C.; read-out: CMV (IC50)
T1 construct: made in house; host or cells: SF21 insect cells (baculovirus vector)
T1 sequence (P08546 whole entry): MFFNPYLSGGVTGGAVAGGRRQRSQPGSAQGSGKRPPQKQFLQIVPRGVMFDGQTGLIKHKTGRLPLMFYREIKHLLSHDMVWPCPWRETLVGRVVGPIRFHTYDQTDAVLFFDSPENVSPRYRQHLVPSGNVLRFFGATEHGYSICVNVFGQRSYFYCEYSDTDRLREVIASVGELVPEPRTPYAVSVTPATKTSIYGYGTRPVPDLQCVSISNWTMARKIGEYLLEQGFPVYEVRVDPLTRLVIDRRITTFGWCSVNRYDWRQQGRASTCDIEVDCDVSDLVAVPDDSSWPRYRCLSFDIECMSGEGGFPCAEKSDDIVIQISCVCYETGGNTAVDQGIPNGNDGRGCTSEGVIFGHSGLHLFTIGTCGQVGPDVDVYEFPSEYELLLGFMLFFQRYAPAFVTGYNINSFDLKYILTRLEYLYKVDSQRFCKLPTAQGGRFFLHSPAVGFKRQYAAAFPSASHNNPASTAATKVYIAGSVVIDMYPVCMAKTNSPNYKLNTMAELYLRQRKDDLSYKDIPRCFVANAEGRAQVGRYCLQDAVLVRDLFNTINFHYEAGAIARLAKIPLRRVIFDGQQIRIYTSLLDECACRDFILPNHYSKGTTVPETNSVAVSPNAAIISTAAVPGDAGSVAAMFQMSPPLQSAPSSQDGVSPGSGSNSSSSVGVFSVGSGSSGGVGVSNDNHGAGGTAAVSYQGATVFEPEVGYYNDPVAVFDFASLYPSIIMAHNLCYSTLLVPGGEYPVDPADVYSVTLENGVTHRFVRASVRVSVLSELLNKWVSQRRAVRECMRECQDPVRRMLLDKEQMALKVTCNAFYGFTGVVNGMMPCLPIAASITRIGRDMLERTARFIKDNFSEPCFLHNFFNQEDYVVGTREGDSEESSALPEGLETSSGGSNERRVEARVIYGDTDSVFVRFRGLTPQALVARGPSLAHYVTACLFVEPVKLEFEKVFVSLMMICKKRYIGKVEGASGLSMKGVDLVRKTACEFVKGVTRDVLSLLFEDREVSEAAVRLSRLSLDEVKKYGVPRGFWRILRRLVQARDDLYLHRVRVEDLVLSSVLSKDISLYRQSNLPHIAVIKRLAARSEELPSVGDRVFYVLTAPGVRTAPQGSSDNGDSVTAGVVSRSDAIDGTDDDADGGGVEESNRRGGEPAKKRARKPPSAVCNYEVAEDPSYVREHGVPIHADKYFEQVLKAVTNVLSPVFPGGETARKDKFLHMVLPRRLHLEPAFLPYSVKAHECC
Method: Human cytomegalovirus and varicella zoster virus DNA polymerases were expressed via baculovirus vector in SF21 cells and purified. Heterodimeric nucleic acid substrate used in the herpesvirus polymerase reactions was generated by annealing a 59-mer template to a 17-mer digoxigenin-labeled primer. Polymerase (HCMV final concentration of 0.2 nM; VZV final concentration of 0.4 nM) was combined with an inhibitor compound or DMSO in assay buffer (10 mM HEPES, pH 7.5, 25 mM KCl, 25 mM NaCl, 5 mM MgCl2, 5% glycerol, 0.67 mg/ml bovine serum albuminutes, and 1 mM tris(2-carboxyethyl)phosphine), and this mixture was pre-incubated for 30 minutes at room temperature in 384-well microtiter plates. The polymerization reaction was initiated by the addition of template/primer substrate (final concentration: 1.6 nM), and dNTPs (final concentration: 24 nM dCTP, 24 nMdGTP, 16 nM dATP, 16 nM dTTP, and 0.8 nM biotin-dUTP). After 60 minutes incubation at 37° C., reactions were terminated with quench buffer (25 mM HEPES pH 7.5, 100 mM NaCl, 0.25% Tween-20, 12 mM EDTA, and 1 mg/ml bovine serum albumin). Incorporation of biotinylated UTP was detected with 2.5-ug/ml anti-DIG AlphaLISA acceptor beads and 5-10 ug/ml streptavidin AlphaLISA donor beads (Perkin Elmer). Compound effects were normalized to the window defined by the controls (DMSO only and pre-quenched wells) and were fit using a 4-parameter algorithm to report an IC50.

[4] = tested on: HSV-1 Strain F; test: Viral qPCR assay, HSV-1 in MRC5 cells; type: cell-based, Herpes Simplex Virus type 1; conditions: read-out: HSV1 MRC5 Cell (EC50)
Method: as §1
as §1, with “gene” for “gene and of the cellular control, PPIA (Thermo Fisher Assay ID=Hs04194521_s1),”, “in” for “in separate”, “Compound effects on viral” for “Viral”, “number” for “numbers were normalized by cellular control copy number, and compound effects”
(§2) VZV: Strain Street was maintained as an infected cell stock in MRC-5 cells. It was assayed in MeWo or MRCS cells and was used at 0.04-0.1 pfu/cell. The assays were performed in growth medium. Primer-probe set was Thermo Fisher Assay ID=AIPAEXQ. HSV-1: Strain F Street was assayed in Vero or MRCS cells and was used at 0.0005-0.004 pfu/cell in growth medium. Primer-probe set was Thermo Fisher Assay ID=AIBJZIB

[5] = tested on: VZV; test: Viral qPCR assay, VZV in MRC5 cells; type: cell-based, varicella zoster virus; conditions: read-out: VZV MRC5 Cell (IC50)
Method: as §1
as §1, with “gene” for “gene and of the cellular control, PPIA (Thermo Fisher Assay ID=Hs04194521_s1),”, “in” for “in separate”, “Compound effects on viral” for “Viral”, “number” for “numbers were normalized by cellular control copy number, and compound effects”
as §2

[6] = Human alphaherpesvirus 2, MRC5, 72 h
[7] = Human alphaherpesvirus 1, MRC5, 72 h
[8] = Human alphaherpesvirus 3, MRC5, 72 h
[9] = Human betaherpesvirus 5, AD169, MRC5, 72 h

SMILES | EC50 ([1]; MRC5 cells, ~72 hrs) [nM] | EC50 ([2]; ~72 hrs) [nM] | IC50 [3] [nM] | EC50 ([4]; ~72 hrs) [nM] | IC50 ([5]; ~72 hrs) [nM] | EC50 [2, 6] [nM] | EC50 [4, 7] [nM] | IC50 [5, 8] [nM] | EC50 [1, 9] [nM]
CC(C1CCC(=O)N1)N1Cc2c(C(=O)NCc3ccc(Cl)cc3)nn(C)c2C1 (single isomer, unassigned) [Compound 1] | 4480 | 6740 | 235 | 9980 | 7530 | – | – | – | –
CC(C1CCC(=O)N1)N1Cc2c(C(=O)NCc3ccc(Cl)cc3)nn(C)c2C1 (single isomer, unassigned) [Compound 2] | 176 | 119 | 9.81 | 270 | 182 | – | – | – | –
CC([C@@H]1CCC(=O)N1)N1Cc2c(C(=O)NCc3ccc(Cl)cc3)nn(-c3nccs3)c2C1 (single isomer, unassigned) [Compound 5] | 392 | 248 | 5.3 | 248 | 405 | – | – | – | –
O=C1CC[C@H](CN2Cc3c(C(=O)NCc4ccc(Cl)cc4)nn(C4CCOC4)c3C2)N1 (single isomer, unassigned) [Compound 33] | 628 | 1410 | 52.5 | 1560 | 1960 | – | – | – | –
O=C1CC[C@H](CN2Cc3c(C(=O)NCc4ccc(Cl)cc4)nn(C4CCOC4)c3C2)N1 (single isomer, unassigned) [Compound 34] | 1800 | 1850 | 51.6 | 790 | 2050 | – | – | – | –
O=C1CC[C@@H](CN2Cc3c(C(=O)NCc4ccc(Cl)cc4)nn(C4CCOC4)c3C2)N1 (single isomer, unassigned) [Compound 43] | 3290 | – | 58.2 | – | – | 3490 | 3550 | 2640 | –
O=C1CC[C@@H](CN2Cc3c(C(=O)NCc4ccc(Cl)cc4)nn(C4CCOC4)c3C2)N1 (single isomer, unassigned) [Compound 44] | 1100 | 2950 | 33.8 | 2500 | 2370 | – | – | – | –
CC(C1CC(F)C(=O)N1)N1Cc2c(C(=O)NCc3ccc(Cl)cc3)nn(C)c2C1 (single isomer, unassigned) [Compound 73] | – | – | 11.2 | – | – | 464 | 614 | 534 | 134
CCC1c2c(c(C(=O)NCc3ccc(Cl)cc3)nn2C)CN1C[C@@H]1CCC(=O)N1 (single isomer, unassigned) [Compound 103] | 157 | 63 | 17.4 | 172 | 104 | – | – | – | –
CCC1c2c(c(C(=O)NCc3ccc(Cl)cc3)nn2C)CN1C[C@H]1CCC(=O)N1 (single isomer, unassigned) [Compound 105] | 479 | 274 | 23 | 335 | 289 | – | – | – | –
CC(=O)OCC1c2c(c(C(=O)NCc3ccc(Cl)cc3)nn2C)CN1CC1CCC(=O)N1 (single isomer, unassigned) [Compound 120] | 642 | 2020 | 121 | 2740 | 1780 | – | – | – | –
O=C1CC[C@H](CN2Cc3c(C(=O)NCc4ccc(Cl)cc4)nn(-c4nccs4)c3C2)N1 [Compound 7] | – | – | 9.82 | – | – | 86.6 | 118 | 190 | 142
O=C1CC[C@H](CN2Cc3c(C(=O)NCc4ccc(Cl)cc4)nn(-c4ncc5cnccn45)c3C2)N1 [Compound 8] | 678 | 226 | 18.5 | 299 | 479 | – | – | – | –
Cc1nc(-n2nc(C(=O)NCc3ccc(Cl)cc3)c3c2CN(C[C@H]2CCC(=O)N2)C3)sc1C [Compound 10] | – | – | 20.9 | – | – | 124 | 189 | 172 | 434
Cc1cnc(-n2nc(C(=O)NCc3ccc(Cl)cc3)c3c2CN(C[C@H]2CCC(=O)N2)C3)s1 [Compound 11] | – | – | 22.7 | – | – | 50.6 | 172 | 170 | 263
CC([C@@H]1CCC(=O)N1)N1Cc2c(C(=O)NCc3ccc(Cl)cc3)nn(C(F)F)c2C1 (some centres unmarked) [Compound 71] | – | 1080 | 76.2 | 2080 | 1210 | – | – | – | –
Cn1nc(C(=O)NCc2ccc(Cl)cc2)c2c1CN(CC1CCC(=O)N1)C2 (centres unmarked) [Compound 88] | 33000 | – | 13300 | – | – | – | – | – | –
CCC(C1CCC(=O)N1)N1Cc2c(C(=O)NCc3ccc(Cl)cc3)nn(C)c2C1 (centres unmarked) [Compound 91] | 99000 | – | 8610 | – | – | – | – | – | –
CCC(C1CCC(=O)N1)N1Cc2c(C(=O)NCc3ccc(Cl)cc3)nn(C)c2C1 (centres unmarked) [Compound 92] | 65900 | – | 1180 | – | – | – | – | – | –
C=CC[C@]1(CN2Cc3c(C(=O)NCc4ccc(Cl)cc4)nn(C)c3C2)CCC(=O)N1 [Compound 96] | – | – | 144 | – | – | – | – | – | 1120
O=C(NCc1ccc(Cl)cc1)c1nn(C(F)F)c2c1CN(CC13CC(C1)C(=O)N3)C2 [Compound 98] | – | – | 534 | – | – | – | – | – | 1400
CC1c2c(c(C(=O)NCc3ccc(Cl)cc3)nn2C)CN1C(C)C1CCC(=O)N1 (centres unmarked) [Compound 110] | 22200 | – | 2900 | – | – | – | – | – | –
CC(C)[C@H]1c2c(c(C(=O)NCc3ccc(Cl)cc3)nn2C)CN1C[C@H]1CCC(=O)N1 [Compound 113] | 4830 | – | 188 | – | – | – | – | – | –
CC(C)[C@@H]1c2c(c(C(=O)NCc3ccc(Cl)cc3)nn2C)CN1C[C@@H]1CCC(=O)N1 [Compound 114] | – | – | 77.6 | – | – | – | – | – | 1100
